Literature values in patent publication US4020157A, “Shortened analogs of somatostatin” (Ayerst McKenna and Harrison Ltd., priority 1975, dated 1977).

Settings: reported by D. Sarantakis et al.

For “[Ala^3,14 ]-somatostatin (AGAKNFFWKTFTSA; Somatostatin-14; UniProt P61278 103-116, looked up, variant C3A C14A) [somatostatin analog synthesized by solid phase methods (Sarantakis et al.)]”, the “activity as % of the potency of somatostatin” value is listed as “about 0.01%”.
